How the values were obtained:
Assay type in all cases: physicochemical
[1] = Miscibility of N-(n-butyl)-2-pyrrolidone with solvents; conditions: with water, propylene glycol, polyethylene glycol, dimethylamide, Solvesso® 200 ND, alkylated vegetable oil or mineral oils
Source text: In addition, the N-substituted pyrrolidones of the formula (I) can also be combined advantageously with various water-immiscible solvents and may serve as cosolvents in solvent-containing formulations, for example in emulsion concentrates (EC), oil dispersions (OD), suspoemulsions (SE) and microemulsions (ME).

[2] = Solutions of active ingredients in N-(n-butyl)-2-pyrrolidone; conditions: solvent N-(n-butyl)-2-pyrrolidone; based on the total weight of the solution
[3] = Microscopy studies: crystallization behavior after 18 hours of drying; conditions: 1 g/L; 1 μL on silanized glass slide; 18 hours of drying at 25° C., 53% relative air humidity; 400× magnification
Source text: The following solutions 1) to 6) were produced:
Solution of 1 g of rynaxypyr in one liter of a mixture of acetone and distilled water at a weight ratio of acetone:distilled water of 30:70.
Solution of 1 g of rynaxypyr in one liter of a mixture of N-(n-butyl)-2-pyrrolidone and distilled water at a weight ratio of N-(n-butyl)-2-pyrrolidone:distilled water of 30:70.
Solution of 1 g of emamectin benzoate in one liter of a mixture of acetone and distilled water at a weight ratio of acetone:distilled water of 30:70.
Solution of 1 g of emamectin benzoate in one liter of a mixture of N-(n-butyl)-2-pyrrolidone and distilled water at a weight ratio of N-(n-butyl)-2-pyrrolidone:distilled water of 30:70.
Solution of 1 g of abamectin in one liter of a mixture of acetone and distilled water at a weight ratio of acetone:distilled water of 30:70.
Solution of 1 g of abamectin in one liter of a mixture of N-(n-butyl)-2-pyrrolidone and distilled water at a weight ratio of N-(n-butyl)-2-pyrrolidone:distilled water of 30:70.
The procedure as described hereinafter was followed with solutions 1) to 6) (see steps A) to C)): • A) 1 μL of the above-described solutions 1) to 6) in each case was applied to silanized glass microscope slides. • B) The solutions were left to stand on the microscope slides at a temperature of 25° C. and 53% relative air humidity over 18 hours, in the course of which drying took place. • C) Thereafter, the microscope slides were assessed and photos were taken at the original edge of the droplets with 400-fold magnification.
The photos for the active agrochemical ingredient abamectin are shown in FIG. 2A and FIG. 2B, those for the active agrochemical ingredient rynaxapyr in FIG. 3A and FIG. 3B, and those for the active agrochemical ingredient emamectin benzoate in FIG. 4A and FIG. 4B.

Compound	miscibility with solvents [1]	amount of active ingredient in solutions prepared with N-(n-butyl)-2-pyrrolidone [2]	crystallization behavior in N-(n-butyl)-2-pyrrolidone/water (30:70) solution [3]	crystallization behavior in acetone/water (30:70) solution [3]
CCCCN1CCCC1=O [N-(n-Butyl)-2-pyrrolidone, N-(n-butyl)-2-pyrrolidone]	miscible in all ratios	–	–	–
OC(Cc1ccccc1Cl)(Cn1nc[nH]c1=S)C1(Cl)CC1 (centres unmarked) [prothioconazole]	–	greater than 35 % by weight	–	–
CNC(=O)c1cc(Cl)cc(C)c1NC(=O)c1cc(Br)nn1-c1ncccc1Cl [rynaxypyr]	–	–	remaining dissolved	crystallized out
abamectin	–	–	remaining dissolved	crystallized out
emamectin benzoate	–	–	remaining dissolved	crystallized out

Reference: US20250302039A1, “USE OF N-SUBSTITUTED PYRROLIDONES TO PROMOTE THE PENETRATION OF AGROCHEMICAL ACTIVE AGENTS” (priority 2016, published 2025)
